Where “and” joins values, the source holds several entries; their conditions need not be identical. Equal entries are not always repeated. Toxic doses and inconclusive results are not listed. The calls were made as follows: active = survival T/C of 150% or more; inactive = T/C below 125% in these data.
Test system: CD2F1 mice, L1210 leukemia ip, survival T/C
Assay: NCI In Vivo Anticancer Drug Screen. Data for tumor model L1210 Leukemia (intraperitoneal) in CD2F1 (CDF1) mice
Details: higher = longer survival
In short: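 Activity against a transplanted murine tumor was judged by comparing the compound group with a vehicle group. The outcome in the treated animals was divided by that in the controls.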

[1] = endpoint: mean survival time, dose: 100.0 mg/kg/injection, schedule: Q01DX009 (ip), vehicle: saline
[2] = endpoint: mean survival time, dose: 50.0 mg/kg/injection, schedule: Q01DX009 (ip), vehicle: saline with Tween-80
[3] = endpoint: mean survival time, dose: 100.0 mg/kg/injection, schedule: Q01DX009 (ip), vehicle: saline with Tween-80
[4] = endpoint: mean survival time, dose: 200.0 mg/kg/injection, schedule: Q01DX009 (ip), vehicle: saline with Tween-80
[5] = endpoint: mean survival time, dose: 100.0 mg/kg/injection, schedule: Q04DX002 (ip), vehicle: saline with Tween-80
[6] = endpoint: mean survival time, dose: 200.0 mg/kg/injection, schedule: Q04DX002 (ip), vehicle: saline with Tween-80
[7] = endpoint: mean survival time, dose: 400.0 mg/kg/injection, schedule: Q04DX002 (ip), vehicle: saline with Tween-80
[8] = endpoint: mean survival time, dose: 100.0 mg/kg/injection, schedule: Q01DX009 (ip), vehicle: Klucel (hydroxypropylcellulose) (HPC)
[9] = endpoint: mean survival time, dose: 200.0 mg/kg/injection, schedule: Q01DX009 (ip), vehicle: Klucel (hydroxypropylcellulose) (HPC)
[10] = endpoint: mean survival time, dose: 200.0 mg/kg/injection, schedule: Q01DX009 (ip), vehicle: saline
[11] = endpoint: mean survival time, dose: 400.0 mg/kg/injection, schedule: Q01DX009 (ip), vehicle: saline
[12] = endpoint: mean survival time, dose: 50.0 mg/kg/injection, schedule: Q04DX002 (ip), vehicle: saline with Tween-80
[13] = endpoint: mean survival time, dose: 100.0 mg/kg/injection, schedule: Q04DX003 (ip), vehicle: saline
[14] = endpoint: mean survival time, dose: 200.0 mg/kg/injection, schedule: Q04DX003 (ip), vehicle: saline
[15] = endpoint: mean survival time, dose: 50.0 mg/kg/injection, schedule: Q04DX003 (ip), vehicle: saline
[16] = endpoint: mean survival time, dose: 100.0 mg/kg/injection, schedule: Q01DX001 (ip), vehicle: saline
[17] = endpoint: mean survival time, dose: 200.0 mg/kg/injection, schedule: Q01DX001 (ip), vehicle: saline
[18] = endpoint: mean survival time, dose: 100.0 mg/kg/injection, schedule: Q01DX001 (ip), vehicle: saline with Tween-80

Measured: T/C

COC(=O)c1ccc(SSc2ccc(C(=O)OC)cc2[N+](=O)[O-])c([N+](=O)[O-])c1
inactive: endpoint: mean survival time, dose: 100.0 mg/kg/injection, schedule: Q04DX003 (ip), vehicle: saline with Tween-80 103 % of control | endpoint: mean survival time, dose: 200.0 mg/kg/injection, schedule: Q04DX003 (ip), vehicle: saline with Tween-80 96 % of control | endpoint: mean survival time, dose: 400.0 mg/kg/injection, schedule: Q04DX003 (ip), vehicle: saline with Tween-80 96 % of control

C=C(C)[C@H]1CN[C@H](C(=O)O)[C@H]1CC(=O)O
inactive: endpoint: mean survival time, dose: 5.0 mg/kg/injection, schedule: Q01DX001 (ip), vehicle: saline 94 % of control | endpoint: median survival time, dose: 0.31 mg/kg/injection, schedule: Q01DX009 (ip), vehicle: saline with Tween-80 103 % of control | endpoint: median survival time, dose: 0.62 mg/kg/injection, schedule: Q01DX009 (ip), vehicle: saline with Tween-80 101 % of control | endpoint: median survival time, dose: 1.25 mg/kg/injection, schedule: Q01DX009 (ip), vehicle: saline with Tween-80 100 % of control | endpoint: median survival time, dose: 2.5 mg/kg/injection, schedule: Q01DX009 (ip), vehicle: saline with Tween-80 101 % of control | endpoint: median survival time, dose: 2.5 mg/kg/injection, schedule: Q01DX009 (ip), vehicle: saline 96 % of control | endpoint: median survival time, dose: 5.0 mg/kg/injection, schedule: Q01DX009 (ip), vehicle: saline with Tween-80 101 % of control | endpoint: median survival time, dose: 5.0 mg/kg/injection, schedule: Q01DX009 (ip), vehicle: saline 103 % of control | endpoint: median survival time, dose: 6.25 mg/kg/injection, schedule: Q01DX009 (ip), vehicle: saline 104 % of control | endpoint: median survival time, dose: 10.0 mg/kg/injection, schedule: Q01DX009 (ip), vehicle: saline with Tween-80 101 % of control | endpoint: median survival time, dose: 10.0 mg/kg/injection, schedule: Q01DX009 (ip), vehicle: saline 101 % of control | endpoint: median survival time, dose: 12.5 mg/kg/injection, schedule: Q01DX009 (ip), vehicle: saline 108 % of control | endpoint: median survival time, dose: 20.0 mg/kg/injection, schedule: Q01DX009 (ip), vehicle: saline 95 % of control | endpoint: median survival time, dose: 25.0 mg/kg/injection, schedule: Q01DX009 (ip), vehicle: saline 97 % of control | endpoint: median survival time, dose: 40.0 mg/kg/injection, schedule: Q01DX009 (ip), vehicle: saline 93 % of control | endpoint: median survival time, dose: 50.0 mg/kg/injection, schedule: Q01DX009 (ip), vehicle: saline 96 % of control

C#CCCO
inactive: endpoint: mean survival time, dose: 25.0 mg/kg/injection, schedule: Q01DX009 (ip), vehicle: saline 113 % of control | endpoint: mean survival time, dose: 50.0 mg/kg/injection, schedule: Q01DX009 (ip), vehicle: saline 98 % of control | [1] 105 % of control

CC1CCCCN1C(=O)Nc1c(Cl)cccc1Cl (stereo not drawn)
inactive: [2] 98 % of control | [3] 105 % of control | [4] 94 % of control

CC[C@@H](C)[C@@H]1NC(=O)C(NC(=O)C(CC(C)C)N(C)C(=O)C2CCCN2C(=O)C(C)O)C(C)OC(=O)C(Cc2ccc(OC)cc2)N(C)C(=O)C2CCCN2C(=O)C(CC(C)C)NC(=O)C(C)C(=O)C(C(C)C)OC(=O)C[C@H]1O (stereo partly drawn)
inactive: endpoint: median survival time, dose: 10.0 micrograms/kg/injection, schedule: Q01DX009 (ip), vehicle: distilled water + alcohol 104 % of control | endpoint: median survival time, dose: 25.0 micrograms/kg/injection, schedule: Q01DX009 (ip), vehicle: distilled water + alcohol 111 % of control | endpoint: median survival time, dose: 40.0 micrograms/kg/injection, schedule: Q01DX009 (ip), vehicle: distilled water + alcohol 104 % of control | endpoint: median survival time, dose: 50.0 micrograms/kg/injection, schedule: Q01DX009 (ip), vehicle: distilled water + alcohol 111 % of control | endpoint: median survival time, dose: 80.0 micrograms/kg/injection, schedule: Q01DX009 (ip), vehicle: distilled water + alcohol 112 % of control | endpoint: median survival time, dose: 100.0 micrograms/kg/injection, schedule: Q01DX009 (ip), vehicle: distilled water + alcohol 121 % of control | endpoint: median survival time, dose: 160.0 micrograms/kg/injection, schedule: Q01DX009 (ip), vehicle: distilled water + alcohol 112 % of control

CCOC(=O)Nc1cc2c(c(N)n1)N=C(CN(C)c1ccc(OC)cc1)CN2
inactive: endpoint: mean survival time, dose: 0.78 mg/kg/injection, schedule: Q01DX009 (ip), vehicle: Klucel (hydroxypropylcellulose) (HPC) 118 % of control

[CH3][Sb]([CH3])([CH3])([O]C(=O)CCl)[O]C(=O)CCl
inactive: [5] 107 % of control | [6] 107 % of control | [7] 103 % of control

CN(C)c1ccc(-c2nc3ccccc3s2)cc1
inactive: endpoint: mean survival time, dose: 50.0 mg/kg/injection, schedule: Q01DX009 (ip), vehicle: Klucel (hydroxypropylcellulose) (HPC) 106 % of control | [8] 96 % of control | [9] 98 % of control

CCOP(=S)(OCC)N1CC1
inactive: [5] 104 % of control | [6] 93 % of control | [7] 89 % of control

CC(=O)OC(CC(=O)CC(OC(C)=O)(C(F)(F)F)C(F)(F)F)(C(F)(F)F)C(F)(F)F
inactive: [1] 100 % of control | [10] 97 % of control | [11] 103 % of control

CCCCCC(C)(C)N=[P+]([O-])NC(C)(C)CCCCC (stereo not drawn)
inactive: endpoint: mean survival time, dose: 25.0 mg/kg/injection, schedule: Q04DX002 (ip), vehicle: saline with Tween-80 95 % of control | [12] 102 % of control | [5] 95 % of control and 98 % of control

Cc1ccc(S(=O)(=O)[n+]2ccccc2)cc1
inactive: [13] 97 % of control | [14] 103 % of control | endpoint: mean survival time, dose: 400.0 mg/kg/injection, schedule: Q04DX003 (ip), vehicle: saline 95 % of control

CCOC(=O)C(C(=O)OCC)[N+](=O)[O-]
inactive: [15] 102 % of control | [16] 97 % of control | [13] 100 % of control | [17] 95 % of control | [14] 105 % of control

COc1ccc(C(O)c2ccccc2S(=O)(=O)N(C)C)cc1 (stereo not drawn)
inactive: endpoint: mean survival time, dose: 100.0 mg/kg/injection, schedule: Q01DX009 (ip), vehicle: saline sonified 105 % of control | endpoint: mean survival time, dose: 200.0 mg/kg/injection, schedule: Q01DX009 (ip), vehicle: saline sonified 96 % of control | endpoint: mean survival time, dose: 400.0 mg/kg/injection, schedule: Q01DX009 (ip), vehicle: saline sonified 93 % of control

CN(C)/C=C1\Cc2ccccc2C1=O
inactive: endpoint: mean survival time, dose: 25.0 mg/kg/injection, schedule: Q01DX001 (ip), vehicle: saline with Tween-80 95 % of control | endpoint: mean survival time, dose: 50.0 mg/kg/injection, schedule: Q01DX001 (ip), vehicle: saline with Tween-80 92 % of control | [18] 90 % of control

NC(CC(=O)O)C(=O)O (stereo not drawn)
inactive: [10] 97 % of control | [11] 95 % of control | endpoint: mean survival time, dose: 800.0 mg/kg/injection, schedule: Q01DX009 (ip), vehicle: saline 98 % of control

COc1ccccc1C1=CCCCCC1
inactive: [3] 107 % of control | [4] 107 % of control

Nc1nc(=O)n(CCCOc2cccc(NC(=O)c3cccc(S(=O)(=O)F)c3)c2)cc1-c1ccc(Cl)c(Cl)c1
inactive: [18] 87 % of control | endpoint: mean survival time, dose: 200.0 mg/kg/injection, schedule: Q01DX001 (ip), vehicle: saline with Tween-80 90 % of control | endpoint: mean survival time, dose: 400.0 mg/kg/injection, schedule: Q01DX001 (ip), vehicle: saline with Tween-80 87 % of control

C=CCCCCC(=O)c1ccccc1
inactive: [12] 100 % of control | [5] 93 % of control | [6] 104 % of control

CCCC(=O)c1cc(O)c(O)cc1O
inactive: endpoint: mean survival time, dose: 12.5 mg/kg/injection, schedule: Q01DX009 (ip), vehicle: saline with Tween-80 111 % of control | endpoint: mean survival time, dose: 25.0 mg/kg/injection, schedule: Q01DX009 (ip), vehicle: saline with Tween-80 93 % of control | [2] 97 % of control

Cc1ccc(NC(=O)Nc2ccc(Nc3ccccc3)cc2)c([N+](=O)[O-])c1
inactive: [8] 89 % of control | [9] 92 % of control | endpoint: mean survival time, dose: 400.0 mg/kg/injection, schedule: Q01DX009 (ip), vehicle: Klucel (hydroxypropylcellulose) (HPC) 89 % of control

NC(=O)C12CCCCC1CCC(=O)C2 (stereo not drawn)
inactive: endpoint: mean survival time, dose: 25.0 mg/kg/injection, schedule: Q04DX003 (ip), vehicle: saline 93 % of control | [15] 96 % of control | [13] 90 % of control

O=C(Cc1ccccc1[N+](=O)[O-])NCC1(c2cccc3c2OCO3)OCCO1
inactive: endpoint: mean survival time, dose: 75.0 mg/kg/injection, schedule: Q01DX001 (ip), vehicle: other 96 % of control | endpoint: mean survival time, dose: 150.0 mg/kg/injection, schedule: Q01DX001 (ip), vehicle: other 91 % of control | endpoint: mean survival time, dose: 300.0 mg/kg/injection, schedule: Q01DX001 (ip), vehicle: other 96 % of control

CCOC(C=O)OCC
inactive: [16] 103 % of control | [17] 97 % of control | endpoint: mean survival time, dose: 400.0 mg/kg/injection, schedule: Q01DX001 (ip), vehicle: saline 103 % of control
